Laboratory results taken from the kinase profiling compilation of Christmann-Franck et al. (2016).

Experiments:
Test in all cases: radiometric filter-binding kinase assay
[1] = test system: AKT2 (human), P31751 [S474D]
AURKB (human) = AURKB (human) (UniProt Q96GD4)
CAMKK2 (human) = CAMKK2 (human) (UniProt Q96RR4)
CHEK1 (human) = CHEK1 (human) (UniProt O14757)
CHEK2 (human) = CHEK2 (human) (UniProt O96017)
EPHB4 (human) = EPHB4 (human) (UniProt P54760)
GCK (human) = GCK (human) (UniProt Q12851)
IGF1R (human) = IGF1R (human) (UniProt P08069)
IKBKB (human) = IKBKB (human) (UniProt O14920)
IKBKB (human), sequence (O14920 whole entry, looked up): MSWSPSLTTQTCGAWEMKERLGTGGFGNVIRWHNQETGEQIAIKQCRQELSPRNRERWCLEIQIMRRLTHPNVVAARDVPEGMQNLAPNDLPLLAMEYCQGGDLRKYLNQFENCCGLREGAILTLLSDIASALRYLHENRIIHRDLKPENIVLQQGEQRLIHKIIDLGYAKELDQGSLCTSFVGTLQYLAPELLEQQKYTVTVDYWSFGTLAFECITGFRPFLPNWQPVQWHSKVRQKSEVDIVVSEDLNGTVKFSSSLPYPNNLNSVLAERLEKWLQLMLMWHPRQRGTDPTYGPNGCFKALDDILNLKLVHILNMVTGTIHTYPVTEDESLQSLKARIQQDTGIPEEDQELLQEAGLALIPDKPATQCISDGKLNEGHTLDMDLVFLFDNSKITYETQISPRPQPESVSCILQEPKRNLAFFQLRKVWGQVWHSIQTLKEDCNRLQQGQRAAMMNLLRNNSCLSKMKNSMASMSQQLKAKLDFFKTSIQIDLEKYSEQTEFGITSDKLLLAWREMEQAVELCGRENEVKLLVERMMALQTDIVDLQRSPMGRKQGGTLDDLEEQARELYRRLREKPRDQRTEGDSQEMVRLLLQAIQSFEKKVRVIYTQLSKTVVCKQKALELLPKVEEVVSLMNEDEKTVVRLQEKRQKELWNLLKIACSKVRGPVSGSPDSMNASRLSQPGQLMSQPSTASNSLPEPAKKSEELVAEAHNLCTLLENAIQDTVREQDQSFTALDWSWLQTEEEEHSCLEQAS

MAP2K1 (human) = MAP2K1 (human) (UniProt Q02750)
MAP3K1 (human) = MAP3K1 (human) (UniProt Q13233)
MAP3K5 (human) = MAP3K5 (human) (UniProt Q99683)
MAPK1 (human) = MAPK1 (human) (UniProt P28482)
MAPK10 (human) = MAPK10 (human) (UniProt P53779)
MAPK15 (human) = MAPK15 (human) (UniProt Q8TD08)
MAPK3 (human) = MAPK3 (human) (UniProt P27361)
MAPK3 (human), sequence (P27361 whole entry, looked up): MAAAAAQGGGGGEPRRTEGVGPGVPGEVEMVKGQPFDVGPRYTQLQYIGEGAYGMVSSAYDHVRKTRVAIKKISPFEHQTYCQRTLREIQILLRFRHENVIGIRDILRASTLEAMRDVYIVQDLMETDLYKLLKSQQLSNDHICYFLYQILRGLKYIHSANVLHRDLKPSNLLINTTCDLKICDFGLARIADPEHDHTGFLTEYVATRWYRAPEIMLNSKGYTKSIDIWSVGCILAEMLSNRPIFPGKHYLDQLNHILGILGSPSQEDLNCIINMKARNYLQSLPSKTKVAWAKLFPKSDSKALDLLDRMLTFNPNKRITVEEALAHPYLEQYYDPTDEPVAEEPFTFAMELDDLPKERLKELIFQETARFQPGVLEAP

MAPK9 (human) = MAPK9 (human) (UniProt P45984)
MAPK9 (human), sequence (P45984 whole entry, looked up): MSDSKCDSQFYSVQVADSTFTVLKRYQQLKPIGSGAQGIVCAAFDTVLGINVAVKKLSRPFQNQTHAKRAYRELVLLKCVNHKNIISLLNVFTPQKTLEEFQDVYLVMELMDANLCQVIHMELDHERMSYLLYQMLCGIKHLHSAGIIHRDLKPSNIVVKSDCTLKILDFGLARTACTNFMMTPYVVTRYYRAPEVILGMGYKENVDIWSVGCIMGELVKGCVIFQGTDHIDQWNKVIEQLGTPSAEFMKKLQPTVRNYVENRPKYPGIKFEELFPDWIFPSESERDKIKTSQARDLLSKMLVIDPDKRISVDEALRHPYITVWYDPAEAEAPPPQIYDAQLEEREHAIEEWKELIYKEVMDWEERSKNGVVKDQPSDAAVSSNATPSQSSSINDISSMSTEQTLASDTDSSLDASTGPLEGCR

MAPKAPK2 (human) = MAPKAPK2 (human) (UniProt P49137)
MAPKAPK2 (human), sequence (P49137 whole entry, looked up): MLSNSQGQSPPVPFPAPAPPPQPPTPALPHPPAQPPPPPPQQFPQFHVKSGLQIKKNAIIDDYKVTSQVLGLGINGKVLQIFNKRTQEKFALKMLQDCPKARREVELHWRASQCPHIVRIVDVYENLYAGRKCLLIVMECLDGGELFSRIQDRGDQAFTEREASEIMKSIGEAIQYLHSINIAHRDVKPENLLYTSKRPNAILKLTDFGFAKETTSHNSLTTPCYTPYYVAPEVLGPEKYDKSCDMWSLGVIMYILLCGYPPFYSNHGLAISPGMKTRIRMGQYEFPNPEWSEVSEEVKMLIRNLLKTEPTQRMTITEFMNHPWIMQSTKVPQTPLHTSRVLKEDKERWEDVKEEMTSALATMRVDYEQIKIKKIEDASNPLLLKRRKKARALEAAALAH

MARK2 (human) = MARK2 (human) (UniProt Q7KZI7)
MINK1 (human) = MINK1 (human) (UniProt Q8N4C8)
MKNK1 (human) = MKNK1 (human) (UniProt Q9BUB5)
MKNK2 (human) = MKNK2 (human) (UniProt Q9HBH9)
NEK2 (human) = NEK2 (human) (UniProt P51955)
NEK2 (human), sequence (P51955 whole entry, looked up): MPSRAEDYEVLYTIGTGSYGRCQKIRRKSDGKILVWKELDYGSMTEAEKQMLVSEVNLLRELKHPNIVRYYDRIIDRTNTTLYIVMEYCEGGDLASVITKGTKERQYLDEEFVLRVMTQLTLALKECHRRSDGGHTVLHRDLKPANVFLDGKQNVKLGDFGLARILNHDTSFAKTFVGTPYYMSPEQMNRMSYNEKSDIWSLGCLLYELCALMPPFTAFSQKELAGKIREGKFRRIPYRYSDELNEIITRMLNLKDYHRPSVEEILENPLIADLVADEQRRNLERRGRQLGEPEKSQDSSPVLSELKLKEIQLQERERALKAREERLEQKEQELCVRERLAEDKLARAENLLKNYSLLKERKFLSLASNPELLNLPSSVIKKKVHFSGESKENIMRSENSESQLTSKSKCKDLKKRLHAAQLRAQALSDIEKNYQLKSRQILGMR

NTRK1 (human) = NTRK1 (human) (UniProt P04629)
PHKG1 (human) = PHKG1 (human) (UniProt Q16816)
PIM2 (human) = PIM2 (human) (UniProt Q9P1W9)
PKN2 (human) = PKN2 (human) (UniProt Q16513)
PRKAA1 or PRKAA2 (rat) = conditions: accession and sequence are those of the human protein
PRKACA (human) = PRKACA (human) (UniProt P17612)
PRKCA (human) = PRKCA (human) (UniProt P17252)
RPS6KA1 KD1 KD2 (human) = RPS6KA1 KD1 KD2 (human) (UniProt Q15418)
RPS6KA1 KD1 KD2 (human), sequence (Q15418 whole entry, looked up): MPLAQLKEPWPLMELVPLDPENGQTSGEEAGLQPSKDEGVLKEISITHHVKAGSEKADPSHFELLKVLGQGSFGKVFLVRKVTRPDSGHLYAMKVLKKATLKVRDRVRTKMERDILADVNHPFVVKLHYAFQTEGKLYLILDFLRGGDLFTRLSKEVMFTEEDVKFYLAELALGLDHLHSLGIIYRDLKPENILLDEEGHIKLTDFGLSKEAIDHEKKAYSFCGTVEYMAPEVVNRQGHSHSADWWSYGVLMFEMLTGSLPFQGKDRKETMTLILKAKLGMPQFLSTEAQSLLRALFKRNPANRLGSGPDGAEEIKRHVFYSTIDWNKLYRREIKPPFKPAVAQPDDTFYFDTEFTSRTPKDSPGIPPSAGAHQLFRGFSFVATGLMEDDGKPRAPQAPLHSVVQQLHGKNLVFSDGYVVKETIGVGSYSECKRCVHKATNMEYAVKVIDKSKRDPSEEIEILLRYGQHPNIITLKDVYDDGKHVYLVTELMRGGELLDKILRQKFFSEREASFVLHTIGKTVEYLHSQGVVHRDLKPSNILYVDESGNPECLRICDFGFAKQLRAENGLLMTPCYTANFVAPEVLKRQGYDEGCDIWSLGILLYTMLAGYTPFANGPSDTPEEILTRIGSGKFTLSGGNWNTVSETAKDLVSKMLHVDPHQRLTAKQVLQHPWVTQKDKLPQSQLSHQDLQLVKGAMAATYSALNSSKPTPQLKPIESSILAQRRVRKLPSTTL

SRC (human) = SRC (human) (UniProt P12931)
[2] = target: STK11 CAB39 STRADA (human) (UniProt Q9Y376+Q7RTN6+Q15831)
STK11 CAB39 STRADA (human), sequence (Q15831 whole entry, looked up): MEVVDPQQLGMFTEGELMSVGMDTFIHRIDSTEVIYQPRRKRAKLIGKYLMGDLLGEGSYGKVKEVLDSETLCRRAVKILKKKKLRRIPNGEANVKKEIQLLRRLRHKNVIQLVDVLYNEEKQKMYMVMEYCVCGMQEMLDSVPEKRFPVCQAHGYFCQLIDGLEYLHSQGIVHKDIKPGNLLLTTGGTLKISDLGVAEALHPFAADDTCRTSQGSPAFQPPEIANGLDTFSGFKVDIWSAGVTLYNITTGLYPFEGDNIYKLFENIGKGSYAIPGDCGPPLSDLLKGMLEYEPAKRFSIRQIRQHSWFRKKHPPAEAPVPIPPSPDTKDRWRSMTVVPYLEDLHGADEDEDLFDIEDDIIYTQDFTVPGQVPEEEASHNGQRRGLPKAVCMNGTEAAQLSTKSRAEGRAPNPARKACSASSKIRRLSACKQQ
STK11 CAB39 STRADA (human), sequence (Q7RTN6 whole entry, looked up): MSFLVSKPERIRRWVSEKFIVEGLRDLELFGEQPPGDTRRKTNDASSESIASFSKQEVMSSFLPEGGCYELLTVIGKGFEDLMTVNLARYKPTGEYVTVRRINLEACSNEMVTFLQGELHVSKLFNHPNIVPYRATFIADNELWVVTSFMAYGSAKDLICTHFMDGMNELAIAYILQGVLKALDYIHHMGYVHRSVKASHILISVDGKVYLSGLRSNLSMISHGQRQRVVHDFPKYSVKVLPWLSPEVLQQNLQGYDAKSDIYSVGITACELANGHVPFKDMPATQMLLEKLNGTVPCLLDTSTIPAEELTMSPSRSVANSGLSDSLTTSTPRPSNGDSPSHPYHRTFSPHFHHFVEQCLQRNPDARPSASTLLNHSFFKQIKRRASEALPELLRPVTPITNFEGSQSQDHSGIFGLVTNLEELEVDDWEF
STK11 CAB39 STRADA (human), sequence (Q9Y376 whole entry, looked up): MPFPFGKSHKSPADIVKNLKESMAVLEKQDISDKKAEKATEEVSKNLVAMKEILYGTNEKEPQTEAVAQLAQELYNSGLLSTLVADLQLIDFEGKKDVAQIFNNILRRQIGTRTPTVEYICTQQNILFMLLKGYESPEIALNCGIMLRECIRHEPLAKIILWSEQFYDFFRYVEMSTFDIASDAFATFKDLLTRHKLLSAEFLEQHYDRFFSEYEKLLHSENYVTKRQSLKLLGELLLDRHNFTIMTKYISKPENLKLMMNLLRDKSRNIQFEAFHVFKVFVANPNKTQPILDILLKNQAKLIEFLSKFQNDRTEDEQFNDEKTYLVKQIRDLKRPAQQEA

STK3 (human) = STK3 (human) (UniProt Q13188)
YES1 (human) = YES1 (human) (UniProt P07947)

CAMKK2 (human), sequence (Q96RR4 whole entry, looked up): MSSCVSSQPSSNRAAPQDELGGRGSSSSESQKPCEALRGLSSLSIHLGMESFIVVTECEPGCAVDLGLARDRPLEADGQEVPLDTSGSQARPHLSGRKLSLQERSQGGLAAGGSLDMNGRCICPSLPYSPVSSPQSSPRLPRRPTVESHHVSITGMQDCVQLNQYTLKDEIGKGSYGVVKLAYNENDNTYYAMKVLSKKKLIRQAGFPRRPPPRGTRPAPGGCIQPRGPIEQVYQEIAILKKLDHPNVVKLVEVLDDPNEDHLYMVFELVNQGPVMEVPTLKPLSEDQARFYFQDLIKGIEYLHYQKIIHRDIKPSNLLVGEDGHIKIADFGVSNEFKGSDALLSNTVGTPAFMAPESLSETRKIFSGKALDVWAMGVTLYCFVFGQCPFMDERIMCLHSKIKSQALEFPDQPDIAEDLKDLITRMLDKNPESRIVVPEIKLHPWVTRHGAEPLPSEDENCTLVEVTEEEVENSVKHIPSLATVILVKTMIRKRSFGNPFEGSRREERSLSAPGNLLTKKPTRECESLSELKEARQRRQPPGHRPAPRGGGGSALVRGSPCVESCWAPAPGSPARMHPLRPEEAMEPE

## FC(F)(F)c1ccc(-c2ccc(Oc3cncc4sc(-c5nn[nH]n5)cc34)cc2)cc1
[1]; compound 1.0 µM
  residual activity: 106%
[1]; compound 10.0 µM
  residual activity: 98%
AURKB (human); compound 1.0 µM
  residual activity: 81%
AURKB (human); compound 10.0 µM
  residual activity: 40%
CAMKK2 (human); compound 1.0 µM
  residual activity: 105%
CAMKK2 (human); compound 10.0 µM
  residual activity: 44%
CHEK1 (human); compound 1.0 µM
  residual activity: 118%
CHEK1 (human); compound 10.0 µM
  residual activity: 65%
CHEK2 (human); compound 1.0 µM
  residual activity: 102%
CHEK2 (human); compound 10.0 µM
  residual activity: 37%
EPHB4 (human); compound 1.0 µM
  residual activity: 109%
EPHB4 (human); compound 10.0 µM
  residual activity: 110%
GCK (human); compound 1.0 µM
  residual activity: 68%
GCK (human); compound 10.0 µM
  residual activity: 17%
IGF1R (human); compound 1.0 µM
  residual activity: 74%
IGF1R (human); compound 10.0 µM
  residual activity: 74%
IKBKB (human); compound 1.0 µM
  residual activity: 89%
IKBKB (human); compound 10.0 µM
  residual activity: 56%
MAP2K1 (human); compound 1.0 µM
  residual activity: 87%
MAP2K1 (human); compound 10.0 µM
  residual activity: 31%
MAP3K1 (human); compound 1.0 µM
  residual activity: 109%
MAP3K1 (human); compound 10.0 µM
  residual activity: 93%
MAP3K5 (human); compound 1.0 µM
  residual activity: 95%
MAP3K5 (human); compound 10.0 µM
  residual activity: 72%
MAPK1 (human); compound 1.0 µM
  residual activity: 114%
MAPK1 (human); compound 10.0 µM
  residual activity: 95%
MAPK10 (human); compound 1.0 µM
  residual activity: 85%
MAPK10 (human); compound 10.0 µM
  residual activity: 96%
MAPK15 (human); compound 1.0 µM
  residual activity: 34%
MAPK15 (human); compound 10.0 µM
  residual activity: 4%
MAPK3 (human); compound 1.0 µM
  residual activity: 101%
MAPK3 (human); compound 10.0 µM
  residual activity: 82%
MAPK9 (human); compound 1.0 µM
  residual activity: 113%
MAPK9 (human); compound 10.0 µM
  residual activity: 100%
MAPKAPK2 (human); compound 1.0 µM
  residual activity: 97%
MAPKAPK2 (human); compound 10.0 µM
  residual activity: 94%
MARK2 (human); compound 1.0 µM
  residual activity: 83%
MARK2 (human); compound 10.0 µM
  residual activity: 84%
MINK1 (human); compound 1.0 µM
  residual activity: 96%
MINK1 (human); compound 10.0 µM
  residual activity: 87%
MKNK1 (human); compound 1.0 µM
  residual activity: 89%
MKNK1 (human); compound 10.0 µM
  residual activity: 55%
MKNK2 (human); compound 1.0 µM
  residual activity: 105%
MKNK2 (human); compound 10.0 µM
  residual activity: 64%
NEK2 (human); compound 1.0 µM
  residual activity: 108%
NEK2 (human); compound 10.0 µM
  residual activity: 113%
NTRK1 (human); compound 1.0 µM
  residual activity: 104%
NTRK1 (human); compound 10.0 µM
  residual activity: 71%
PHKG1 (human); compound 1.0 µM
  residual activity: 102%
PHKG1 (human); compound 10.0 µM
  residual activity: 82%
PIM2 (human); compound 1.0 µM
  residual activity: 87%
PIM2 (human); compound 10.0 µM
  residual activity: 36%
PKN2 (human); compound 1.0 µM
  residual activity: 98%
PKN2 (human); compound 10.0 µM
  residual activity: 54%
PRKAA1 or PRKAA2 (rat); compound 1.0 µM
  residual activity: 81%
PRKAA1 or PRKAA2 (rat); compound 10.0 µM
  residual activity: 51%
PRKACA (human); compound 1.0 µM
  residual activity: 101%
PRKACA (human); compound 10.0 µM
  residual activity: 89%
PRKCA (human); compound 1.0 µM
  residual activity: 107%
PRKCA (human); compound 10.0 µM
  residual activity: 59%
RPS6KA1 KD1 KD2 (human); compound 1.0 µM
  residual activity: 122%
RPS6KA1 KD1 KD2 (human); compound 10.0 µM
  residual activity: 57%
SRC (human); compound 1.0 µM
  residual activity: 108%
SRC (human); compound 10.0 µM
  residual activity: 95%
[2]; compound 1.0 µM
  residual activity: 85%
[2]; compound 10.0 µM
  residual activity: 64%
STK3 (human); compound 1.0 µM
  residual activity: 93%
STK3 (human); compound 10.0 µM
  residual activity: 76%
YES1 (human); compound 1.0 µM
  residual activity: 100%
YES1 (human); compound 10.0 µM
  residual activity: 87%
